Laboratory results from the supplement of paper PMC10307832.

Key:
Experiment in all cases: relative viability (nuclei count vs DMSO), 5 days (fraction); higher = more cells survive
EKVX = system: EKVX
Procedure, shortened: (§1)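 Lung cancer cell lines were pin-tool dosed in 1536-well plates on the day after seeding, with either a lone drug or a fixed anchor-drug dose plus five library-drug doses (not always all listed) in √10 steps. Nuclei were counted on 4× images after 5 days. Relative viability is the ratio of treated-well to vehicle-well nuclei counts, with each value a median of duplicate plates.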

CAL-12T = system: CAL-12T
Procedure, shortened: as §1

NCI-H2228 = system: NCI-H2228
Procedure, shortened: as §1

SK-MES-1 = system: SK-MES-1
Procedure, shortened: as §1

NCI-H1975 = system: NCI-H1975
Procedure, shortened: as §1

NCI-H441 = system: NCI-H441
Procedure, shortened: as §1

NCI-H322M = system: NCI-H322M
Procedure, shortened: as §1

EPLC-272H = system: EPLC-272H
Procedure, shortened: as §1

ABC-1 = system: ABC-1
Procedure, shortened: as §1

COR-L 105 = system: COR-L 105
Procedure, shortened: as §1

NCI-H2087 = system: NCI-H2087
Procedure, shortened: as §1

Work on `Cc1csc(=NC2CCCCC2)n1/N=C/c1ccc(O)c(O)c1O` [MIM1] + COc1cc2c(Oc3ccc(NC(=O)C4(C(=O)Nc5ccc(F)cc5)CC4)cc3F)ccnc2cc1OCCCN1CCOCC1 [Foretinib] (partner 0.25 µM) yielded a relative viability (EKVX; first compound 2 µM) of 0.75, a relative viability (EKVX; first compound 6.325 µM) of 0.379 and a relative viability (EKVX; first compound 20 µM) of 0.422. The relative viability (CAL-12T; first compound 0.2 µM) was 1.03, the relative viability (CAL-12T; first compound 0.6325 µM) was 1.16 and the relative viability (CAL-12T; first compound 2 µM) was 1.2. The relative viability (CAL-12T; first compound 6.325 µM) was 0.68, the relative viability (CAL-12T; first compound 20 µM) was 0.475 and the relative viability (NCI-H2228; first compound 0.2 µM) was 1.06. The relative viability (NCI-H2228; first compound 0.6325 µM) was 0.951, the relative viability (NCI-H2228; first compound 2 µM) was 0.853 and the relative viability (NCI-H2228; first compound 6.325 µM) was 0.583. For the same compound, the relative viability (NCI-H2228; first compound 20 µM) was 0.247, the relative viability (SK-MES-1; first compound 0.2 µM) was 0.897 and the relative viability (SK-MES-1; first compound 0.6325 µM) was 0.891. It also gave a relative viability (SK-MES-1; first compound 2 µM) of 0.861, a relative viability (SK-MES-1; first compound 6.325 µM) of 0.805 and a relative viability (SK-MES-1; first compound 20 µM) of 0.758. It also gave a relative viability (NCI-H1975; first compound 0.2 µM) of 0.905, a relative viability (NCI-H1975; first compound 0.6325 µM) of 0.96 and a relative viability (NCI-H1975; first compound 2 µM) of 0.837. It also gave a relative viability (NCI-H1975; first compound 6.325 µM) of 0.493, a relative viability (NCI-H1975; first compound 20 µM) of 0.316 and a relative viability (NCI-H441; first compound 0.2 µM) of 1.17. It also gave a relative viability (NCI-H441; first compound 2 µM) of 1.01, a relative viability (NCI-H441; first compound 6.325 µM) of 0.617 and a relative viability (NCI-H441; first compound 20 µM) of 0.256. The relative viability (NCI-H322M; first compound 0.2 µM) was 0.986, the relative viability (NCI-H322M; first compound 0.6325 µM) was 0.895 and the relative viability (NCI-H322M; first compound 2 µM) was 0.867. For the same compound, the relative viability (NCI-H322M; first compound 6.325 µM) was 0.85, the relative viability (NCI-H322M; first compound 20 µM) was 0.548 and the relative viability (EPLC-272H; first compound 0.2 µM) was 0.779. The relative viability (EPLC-272H; first compound 0.6325 µM) was 0.724, the relative viability (EPLC-272H; first compound 2 µM) was 0.622 and the relative viability (EPLC-272H; first compound 6.325 µM) was 0.159. For the same compound, the relative viability (EPLC-272H; first compound 20 µM) was 0.12, the relative viability (ABC-1; first compound 0.2 µM) was 1.05 and the relative viability (ABC-1; first compound 0.6325 µM) was 1.12. It also gave a relative viability (ABC-1; first compound 2 µM) of 0.981, a relative viability (ABC-1; first compound 6.325 µM) of 0.324 and a relative viability (ABC-1; first compound 20 µM) of 0.328. For the same compound, the relative viability (COR-L 105; first compound 0.2 µM) was 1.02, the relative viability (COR-L 105; first compound 0.6325 µM) was 0.821 and the relative viability (COR-L 105; first compound 2 µM) was 1.19. It also gave a relative viability (COR-L 105; first compound 6.325 µM) of 1.08, a relative viability (COR-L 105; first compound 20 µM) of 0.774 and a relative viability (NCI-H2087; first compound 0.2 µM) of 1.04. The relative viability (NCI-H2087; first compound 0.6325 µM) was 1.31, the relative viability (NCI-H2087; first compound 2 µM) was 1.18 and the relative viability (NCI-H2087; first compound 6.325 µM) was 0.813. The relative viability (NCI-H2087; first compound 20 µM) was 0.847.
